What follows are compounds tested on Human monocyte cell line THP-1 (assay: Detection of THP-1 cell pyroptosis (Caspase-Glo 1 Inflammasome Assay)). Conditions: Homo sapiens, THP-1, THP-1 pyroptosis, 20 nM PMA 48 h, 1 μg/mL LPS, compound 3 h.
Format: cell-based
Experimental: Human monocyte cell line THP-1 (ATCC® TB-202TM) was cultured in RPMI-1640 culture medium containing […], 1 mM pyruvic acid, 0.05 mM β-mercaptoethanol and 10% double antibody under the culture conditions of 37° C. and […].
Cell counting was performed, THP-1 cells were seeded into a 96-well plate at 50000 per well, and 20 nM PMA was added for inducing at 37° C./5% CO2 for 48 h. The culture medium was then discarded, and 100 μL of serum-free RPMI-1640 medium containing 1 μg/mL LPS was added. 5 μL of compound or solvent control was added and 3-fold diluted in gradient from a maximum concentration of 10 μM, and 10 gradient concentrations were set. The mixtures were incubated at 37° C./5% CO2 for 3 h. After the incubation, the mixtures were centrifuged at 300 g for 5 min, and the culture medium was discarded. Pyroptosis assay was performed according to specific steps described in instructions of Caspase-Glo® 1 Inflammasome Assay kit. IC50 was calculated using GraphPad Prism7.0 software.

Compared with `C[C@H](c1ccc2c(c1NC(=O)NS(=O)(=O)c1sc(C(C)(C)O)cc1C#N)CCC2)C1CC1` [Compound 63, (S)-3-cyano-N-((5-(1-cyclopropylethyl)-2,3-dihydro-1H-inden-4-yl)carbamoyl)-5-(2-hydroxypropan-2-yl)thiophene-2-sulfonamide], `C[C@H](c1ccc2c(c1NC(=O)NS(=O)(=O)c1cc(C(C)(C)O)co1)CC2)C1CC1` [Compound 35, (S)-N-((3-(1-cyclopropylethyl)bicyclo[4.2.0]octa-1(6),2,4-trien-2-yl)carbamoyl)-4-(2-hydroxypropan-2-yl)furan-2-sulfonamide] is higher in IC50: 100 to 500 nM for the first, 1000 to 5000 nM for the second.

Work on `CC(C)(O)c1coc(S(=O)(=O)NC(=O)Nc2c(CC3CCC3)ccc3c2CC3)c1` [Compound 33, N-((3-(cyclobutylmethyl)bicyclo[4.2.0]octa-1(6),2,4-trien-2-yl)carbamoyl)-4-(2-hydroxypropan-2-yl)furan-2-sulfonamide] yielded an IC50 of 100 to 500 nM.

Same assay, conditions: THP-1 pyroptosis, 20 nM PMA 48 h, 1 μg/mL LPS, compound 3 h

First: RS- and SS-N-((5-(cyclobutylmethyl)-2,3-dihydro-1H-inden-4-yl-7-d)carbamoyl)-4-(2-hydroxypropan-2-yl)furan-2-sulfonimidamide [Compound 39-2]
Second: Cc1ccc(S(=N)(=O)NC(=O)Nc2c(C(C)C)cccc2C(C)C)cc1 (stereo not drawn) [Compound 92-1, RS- and SS-N-((2,6-diisopropylphenyl)carbamoyl)-4-methylbenzenesulfonimidamide, reference compound]
The IC50 of the first is lower: 1000 to 5000 nM for the first, over 10000 nM for the second. The first is the more potent here.

Compared with `CC(C)(O)c1coc(S(=N)(=O)NC(=O)Nc2c(CC3CCC3)ccc3c2CC3)c1` (single isomer, unassigned) [Compound 34-2, RS- and SS-N-((3-(cyclobutylmethyl)bicyclo[4.2.0]octa-1(6),2,4-trien-2-yl)carbamoyl)-4-(2-hydroxypropan-2-yl)furan-2-sulfonimidamide], “(RS, SC)- and (SS, SC)-N-((5-(1-cyclobutylethyl)-2,3-dihydro-1H-inden-4-yl)carbamoyl)-4-(2-hydroxypropan-2-yl)furan-2-sulfonimidamide [Compound 82-2]” is higher in IC50: at most 100 nM for the first, 1000 to 5000 nM for the second.

`CC(c1cc(C#N)c2c(c1NC(=O)NS(=N)(=O)c1cc(C(C)(C)O)co1)CCC2)C1CC1` (racemic) [Compound 48-1, (RS, SC)- and (SS, SC)-N-((7-cyano-5-(1-cyclopropylethyl)-2,3-dihydro-1H-inden-4-yl)carbamoyl)-4-(2-hydroxypropan-2-yl)furan-2-sulfonimidamide] and `Cc1oc(S(=N)(=O)NC(=O)Nc2c(C(C)C3CC3)ccc3c2CCC3)cc1C(C)(C)O` (racemic) [Compound 25-1, (RS, SC)- and (SS, SC)-N-((5-(1-cyclopropylethyl)-2,3-dihydro-1H-inden-4-yl)carbamoyl)-4-(2-hydroxypropan-2-yl)-5-methylfuran-2-sulfonimidamide] cannot be ordered by IC50: 100 to 500 nM for the first, at most 100 nM for the second.

“(RS, SC)- and (SS, SC)-N-((5-(1-cyclopropylethyl)-2,3-dihydro-1H-inden-4-yl)carbamoyl)-4-(2-hydroxypropan-2-yl-1,1,1,3,3,3-d6)furan-2-sulfonimidamide [Compound 49-1]” and `C[C@@H](c1ccc2c(c1NC(=O)NS(=N)(=O)c1cc(C(C)(C)O)co1)CCC2)C1CCC1` (mixture of isomers) [Compound 80-1, (RS)- and (SS)-N-((5-((R)-1-cyclobutylethyl)-2,3-dihydro-1H-inden-4-yl)carbamoyl)-4-(2-hydroxypropan-2-yl)furan-2-sulfonimidamide] fall in the same range of IC50: 100 to 500 nM for the first, 100 to 500 nM for the second.

For `CC(c1cc(C#N)c2c(c1NC(=O)NS(=N)(=O)c1cc(C(C)(C)O)co1)CCC2)C1CC1` (racemic) [Compound 46-2, (RS, RC)- and (SS, RC)-N-((7-cyano-5-(1-cyclopropylethyl)-2,3-dihydro-1H-inden-4-yl)carbamoyl)-4-(2-hydroxypropan-2-yl)furan-2-sulfonimidamide], the IC50 was 100 to 500 nM.

— patent publication US11976054B2, “Amide derivative and preparation method therefore and use thereof in medicine” (Chengdu Baiyu Pharmaceutical Co., Ltd., priority 2019, dated 2024)
